For experiment [1], the target named is T1, Ileal sodium/bile acid cotransporter (Homo sapiens, UniProt Q12908).
T1 sequence (Q12908 whole entry): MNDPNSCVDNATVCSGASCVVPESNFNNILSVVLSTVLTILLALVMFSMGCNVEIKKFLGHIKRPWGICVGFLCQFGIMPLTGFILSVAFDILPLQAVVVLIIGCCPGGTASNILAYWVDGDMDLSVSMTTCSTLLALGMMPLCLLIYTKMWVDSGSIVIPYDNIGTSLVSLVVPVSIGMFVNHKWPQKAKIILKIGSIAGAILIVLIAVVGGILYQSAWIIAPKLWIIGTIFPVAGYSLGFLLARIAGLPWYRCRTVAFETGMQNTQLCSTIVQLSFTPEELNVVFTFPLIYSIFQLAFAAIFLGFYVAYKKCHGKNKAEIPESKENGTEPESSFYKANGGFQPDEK
The experiment can be described thus: (§1) TP_TRANSPORTER: inhibition of Taurocholate accumulation in ASBT-expressing HEK293 cells. The experiment is classed as functional, cell-based.

In experiment [2] the target is T2, Ileal sodium/bile acid cotransporter (Mus musculus, UniProt P70172).
T2 sequence (P70172 whole entry): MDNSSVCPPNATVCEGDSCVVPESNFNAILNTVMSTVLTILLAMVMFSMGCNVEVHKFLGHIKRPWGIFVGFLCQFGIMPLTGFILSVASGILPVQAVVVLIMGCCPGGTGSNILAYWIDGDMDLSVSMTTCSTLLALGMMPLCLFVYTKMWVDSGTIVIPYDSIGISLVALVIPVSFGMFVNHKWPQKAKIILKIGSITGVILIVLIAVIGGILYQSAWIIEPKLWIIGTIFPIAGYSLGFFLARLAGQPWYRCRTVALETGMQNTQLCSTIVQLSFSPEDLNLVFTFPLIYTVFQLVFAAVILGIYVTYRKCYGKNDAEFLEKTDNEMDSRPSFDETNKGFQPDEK
The description is as §1. The class given is functional, cell-based.

The structures appear in SMILES notation.

As a reminder, the Ki is a measure of affinity in units of concentration, obtained from inhibition or displacement. A higher Ki goes with weaker binding.

As for `CCCC[C@]1(CC)CS(=O)(=O)c2ccccc2[C@@H](c2ccccc2)N1`, the Ki in experiment [1] was determined as 10 µM; in experiment [2] it was 0.068 µM.

The record behind these values is ChEMBL document CHEMBL2074048, “Identification of a region of the ileal-type sodium/bile acid cotransporter interacting with a competitive bile acid transport inhibitor” (Biochemistry, 2002).
